Data taken from PubChem BioAssay (NCI).
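Briefly, cells in 96-well plates were exposed to five compound concentrations for 48 h, and endpoints were estimated by linear interpolation. At the TGI there is no net growth.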

Experiments:
Assay in all cases: DTP human tumour cell line panel, 48 h
786-0 renal = tested on: 786-0 renal
CAKI-1 renal = tested on: CAKI-1 renal
COLO 205 colon = tested on: COLO 205 colon
MCF7 breast = tested on: MCF7 breast
NCI-H226 lung = tested on: NCI-H226 lung
NCI/ADR-RES ovarian = tested on: NCI/ADR-RES ovarian
OVCAR-3 ovarian = tested on: OVCAR-3 ovarian
OVCAR-4 ovarian = tested on: OVCAR-4 ovarian
OVCAR-8 ovarian = tested on: OVCAR-8 ovarian
RPMI-8226 leukemia = tested on: RPMI-8226 leukemia
SK-MEL-5 melanoma = tested on: SK-MEL-5 melanoma
TK-10 renal = tested on: TK-10 renal

Row | SMILES | TGI (786-0 renal) | TGI (CAKI-1 renal) | TGI (COLO 205 colon) | TGI (MCF7 breast) | TGI (NCI-H226 lung) | TGI (NCI/ADR-RES ovarian) | TGI (OVCAR-3 ovarian) | TGI (OVCAR-4 ovarian) | TGI (OVCAR-8 ovarian) | TGI (RPMI-8226 leukemia) | TGI (SK-MEL-5 melanoma) | TGI (TK-10 renal)
1 | CCOc1cnc(C(O)(c2ccccc2)c2ccccc2)o1 | > 100 µM | > 100 µM | > 100 µM | > 100 µM | > 100 µM | > 100 µM | > 100 µM | > 100 µM | > 100 µM | > 100 µM | > 100 µM | 
2 | O=C(CCc1cc(O)cc(O)c1)NCCc1cc(O)cc(OCc2ccccc2)c1 | > 100 µM | > 100 µM | > 100 µM | > 100 µM | > 100 µM | > 100 µM | > 100 µM |  | > 100 µM | 90.5 µM | 37.1 µM | > 100 µM
3 | Cc1ccc(S[C@@](C=O)(NC(=O)OCc2ccccc2)C(F)(F)F)cc1 | 47.5 µM | 63.8 µM | 35.5 µM | 78.4 µM | 40.2 µM | 51.8 µM | > 100 µM | > 100 µM | 43.7 µM | 57.2 µM | 41.4 µM | 
4 | COC(=O)[C@@H]1CO[C@H](C(C)(C)C)N1C(=O)N1C=CC(=O)C[C@H]1C | > 100 µM | > 100 µM | > 100 µM | > 100 µM | > 100 µM | > 100 µM | > 100 µM |  | > 100 µM | > 100 µM | > 100 µM | > 100 µM
5 | C[C@@H]1CC[C@]2(C)C3(C)CC[C@]2(OC3=O)[C@@]12CC(c1ccoc1)OC2=O (stereo partly specified) | 40.7 µM | 72.6 µM | 41.4 µM | > 100 µM | > 100 µM | > 100 µM | 58.2 µM | 48.3 µM |  | 77.5 µM | > 100 µM | 96.7 µM
6 | O=C(NCCC1CNc2ccccc21)OCc1ccccc1 (stereo unspecified) | > 100 µM | > 100 µM | > 100 µM | > 100 µM |  | > 100 µM | > 100 µM | > 100 µM | > 100 µM | > 100 µM | > 100 µM | 
7 | NC1=NC2(COC(c3ccccc3)(c3ccccc3)c3ccccc3)OC(COC(c3ccccc3)(c3ccccc3)c3ccccc3)C(O)C2O1 (stereo unspecified) | > 100 µM | > 100 µM | > 100 µM | > 100 µM | > 100 µM | > 100 µM | > 100 µM |  | > 100 µM | 52.4 µM | > 100 µM | > 100 µM
8 | O=C(Nn1c(-c2ccccc2)nc2ccccc2c1=O)c1ccc(Cl)cc1 | > 100 µM |  |  | > 100 µM | > 100 µM | > 100 µM | > 100 µM | > 100 µM | > 100 µM | > 100 µM | > 100 µM | > 100 µM
